# Measurements from ChEMBL document CHEMBL3727373, “Phosphoglycerate kinase inhibitors” (2012).
# Target: T1, Phosphoglycerate kinase 1 (Homo sapiens, UniProt P00558)
# T1 sequence (P00558 whole entry): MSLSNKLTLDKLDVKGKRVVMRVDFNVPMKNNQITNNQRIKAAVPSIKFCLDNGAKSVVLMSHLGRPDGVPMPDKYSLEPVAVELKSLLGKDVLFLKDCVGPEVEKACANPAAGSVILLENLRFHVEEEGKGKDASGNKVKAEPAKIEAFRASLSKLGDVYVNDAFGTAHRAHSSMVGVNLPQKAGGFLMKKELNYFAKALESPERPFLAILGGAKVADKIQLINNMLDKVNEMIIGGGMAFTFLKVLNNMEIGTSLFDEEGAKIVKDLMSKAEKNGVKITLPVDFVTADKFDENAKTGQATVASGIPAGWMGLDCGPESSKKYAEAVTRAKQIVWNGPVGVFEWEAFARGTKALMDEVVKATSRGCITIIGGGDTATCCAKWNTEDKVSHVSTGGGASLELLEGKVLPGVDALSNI
# Experiment: Inhibition of PGK1 (unknown origin) pre-incubated with enzyme before 3-phosphoglycerate substrate addition and incubated for 30 mins in presence of NADH and ATP by glyceraldehyde P-dehydrogenase coupling based NADH fluorescence assay
row,SMILES,IC50
1,CCNc1nc2cc(Cl)c(C#CC3CC3)cc2nc1NCC,19 nM
2,CCNc1nc2cc(Cl)c(C#Cc3ccoc3)cc2nc1NCC,1030 nM
3,CCNc1nc2cc(OC)c(Cl)cc2nc1-c1ccc2occc(=O)c2c1,1600 nM
4,CCNc1nc2cc(OC)c(OC)cc2nc1Br,4640 nM
5,CCNc1nc2cc(Cl)c(C#CCCCO)cc2nc1NCC,42 nM
6,CCNc1nc2cc(OC)c(Cl)cc2nc1-c1cc2ccccc2o1,1400 nM
7,COc1cc2nc(Br)c(NCCN3CCN(C)CC3)nc2cc1OC,16400 nM
8,CCNc1nc2cc(OC)c(Cl)cc2nc1-c1cccc2[nH]ccc12,4400 nM
9,CCNc1nc2cc(OC)c(Cl)cc2nc1-c1cccc(Cl)c1,2100 nM
10,CCC#Cc1cc2nc(NCC)c(NCC)nc2cc1Cl,270 nM
11,CCNc1nc2cc(OC)c(Cl)cc2nc1-c1cccc(C(=O)NCc2ccccc2)c1,550 nM
12,CCNc1nc2cc(OC)c(Cl)cc2nc1-c1ccc(Cl)cc1,1900 nM
13,CCNc1nc2cc(C#CCCO)c(Cl)cc2nc1C#CCCO,665 nM
14,CCNc1nc2cc(OC)c(Cl)cc2nc1NCCCN1CCCC1,252 nM
15,CCNc1nc2cc(OC)c(Cl)cc2nc1-c1cc2ccccc2s1,78 nM
16,CCNc1nc2cc(C#CCCO)c(Cl)cc2nc1NCCN1CCN(C)CC1,8 nM
17,CCNc1nc2cc(OC)c(Cl)cc2nc1-c1cnn(C)c1,66 nM
18,CCNc1nc2cc(OC)c(OC)cc2nc1NCCCN1CCCC1,4360 nM
19,CCNc1nc2cc(OC)c(OC)cc2nc1Cl,6320 nM
20,CCNc1nc2cc(Cl)c(C#N)cc2nc1NCCN1CCN(C)CC1,71 nM
21,CCNc1nc2cc(Cl)c(C#CCCCCO)cc2nc1NCC,385 nM
22,CCNc1nc2cc(Cl)c(C#CCCN)cc2nc1NCC,1050 nM
23,CCNc1nc2cc(OC)c(Cl)cc2nc1-c1ccc(N2CCN(C(=O)OC(C)(C)C)CC2)nc1,1700 nM

row,SMILES,IC50
1,CCNc1nc2cc(OC)c(Cl)cc2nc1NCc1cccnc1,129 nM
2,CCNc1nc2cc(Cl)c(NC(C)=O)cc2nc1NCC,4140 nM
3,CCCC(O)C#Cc1cc2nc(NCC)c(NCC)nc2cc1Cl (stereo not given),2000 nM
4,CCNc1nc2cc(Cl)c(CC(=O)CCC(=O)OC)cc2nc1NCC,9000 nM
5,CCNc1nc2cc(Cl)c(N3CC(CCO)C3)cc2nc1NCC,10000 nM
6,CCNc1nc2cc(C#CCCO)c(Cl)cc2nc1NCCCN1CCN(C)CC1,16 nM
7,C#CCOc1cc2nc(NCC)c(NCC)nc2cc1Cl,320 nM
8,CCNc1nc2cc(OC)c(Cl)cc2nc1-c1cccc(C(N)=O)c1,240 nM
9,CCNc1nc2cc(OC)c(OC)cc2nc1NC,2530 nM
10,CCNc1nc2cc(O)c(Cl)cc2nc1NCC,366 nM
11,CCNc1nc2cc(Cl)c(C#N)cc2nc1NCc1cccnc1,15 nM
12,CCNc1nc2cc(Cl)c(C#CCC(C)O)cc2nc1NCC (stereo not given),122 nM
13,CCNc1nc2cc(Cl)c(C#CC(C)(C)O)cc2nc1NCC,2690 nM
14,CCNc1nc2cc(OC)c(Cl)cc2nc1-c1ccc2c(c1)OCO2,2300 nM
15,CCNc1nc2cc(OC)c(Cl)cc2nc1NCCCN1CCN(C)CC1,195 nM
16,CCNc1nc2cc(Cl)c(OC)cc2nc1NCC,9 nM
17,CCNc1nc2cc(Cl)c(C#CC(=O)OC)cc2nc1NCC,633 nM
18,CCNc1nc2cc(OC)c(OC)cc2nc1NCc1ccncc1,2010 nM
19,CCNc1nc2cc(OC)c(Cl)cc2nc1NC(C)CCCN(CC)CC (stereo not given),515 nM
20,CCNc1nc2cc(Cl)c(C#CC(C)(O)CC)cc2nc1NCC (stereo not given),4810 nM
21,CCNc1nc2cc(OC)c(Cl)cc2nc1-c1cn[nH]c1,75 nM
22,COc1cc2nc(NCCCN3CCCC3)c(-c3ccncc3)nc2cc1OC,10000 nM
23,CCNc1nc2cc(OC)c(OC)cc2nc1NCc1ccccn1,1280 nM

row,SMILES,IC50
1,CCNc1nc2cc(Cl)c([N+](=O)[O-])cc2nc1NCC,98 nM
2,COc1cc2nc(NCc3cccnc3)c(-c3ccncc3)nc2cc1OC,7590 nM
3,CCNc1nc2cc(OC)c(OC)cc2nc1NCCc1ccccn1,840 nM
4,CCNc1nc2cc(OC)c(Cl)cc2nc1-c1cccc2ccccc12,10000 nM
5,CCNc1nc2cc(Cl)c(C#Cc3cccc(O)c3)cc2nc1NCC,5700 nM
6,CCNc1nc2cc(OC)c(Cl)cc2nc1NCCN1CCN(C)CC1,173 nM
7,CCNc1nc2cc(Cl)c(C#CCCC#N)cc2nc1NCC,54 nM
8,CCNc1nc2cc(OC)c(Cl)cc2nc1-c1csc2ccccc12,2000 nM
9,CCNc1nc2cc(Cl)c(C#CC(C)O)cc2nc1NCC (stereo not given),125 nM
10,CCNc1nc2cc(OC)c(OC)cc2nc1NCCCN1CCCC1=O,1810 nM
11,CCNc1nc2cc(OC)c(OC)cc2nc1NCC,50000 nM
12,CCNc1nc2cc(OC)c(OC)cc2nc1NCc1cccnc1,710 nM
13,CCNc1nc2cc(OC)c(Cl)cc2nc1-c1cccc2ncccc12,1400 nM
14,CCNc1nc2cc(Cl)c(C#CCOC(=O)CC)cc2nc1NCC,257 nM
15,CCNc1nc2cc(OC)c(OC)cc2nc1NCCc1ccncc1,741 nM
16,CCNc1nc2cc(Cl)c(OC(F)(F)F)cc2nc1NCC,1170 nM
17,CCNc1nc2cc(Cl)c(C#CCO)cc2nc1NCC,1 nM
18,CCNc1nc2cc(Cl)c(C#CCCCC#N)cc2nc1NCC,570 nM
19,CCNc1nc2cc(OC)c(Cl)cc2nc1-c1cnc2ccccc2c1,4600 nM
20,CCNc1nc2cc(C#CCCO)c(Cl)cc2nc1Cl,41 nM
21,CCNc1nc2cc(OC)c(Cl)cc2nc1-c1cnn(Cc2ccccc2)c1,91 nM
22,CCNc1nc2cc(OC)c(Cl)cc2nc1-c1ccc2c(ccn2C)c1,220 nM
23,CCNc1nc2cc(OC)c(Cl)cc2nc1-c1cccs1,190 nM

row,SMILES,IC50
1,CCNc1nc2cc(Cl)c(-c3noc(CCO)n3)cc2nc1NCC,596 nM
2,CCNc1nc2cc(OC)c(Cl)cc2nc1Cl,1180 nM
3,CCNc1nc2cc(Cl)c(C#CCCN3C(=O)c4ccccc4C3=O)cc2nc1NCC,3160 nM
4,CCNc1nc2cc(OC)c(Cl)cc2nc1-c1cncc2ccccc12,1500 nM
5,CCNc1nc2cc(Cl)c(C#CCNC(N)=O)cc2nc1NCC,393 nM
6,CCNc1nc2cc(Cl)c(C#N)cc2nc1NCC,38 nM
7,CCNc1nc2cc(Cl)c(NC(=O)CCO)cc2nc1NCC,1090 nM
8,CCNc1nc2cc(Cl)c(CC(=O)CCC(=O)O)cc2nc1NCC,5830 nM
9,C#Cc1cc2nc(NCC)c(NCC)nc2cc1Cl,12 nM
10,CCNc1nc2cc(Cl)c(C#CCOC)cc2nc1NCC,66 nM
11,CNc1nc2cc(OC)c(OC)cc2nc1Cl,24000 nM
12,CCNc1nc2cc(Cl)c(C#CC(N)=O)cc2nc1NCC,556 nM
13,CCNc1nc2cc(OC)c(Cl)cc2nc1-c1cccc(C(=O)NCc2ccco2)c1,210 nM
14,CN1CCN(CCNc2nc3cc(Cl)c(C#N)cc3nc2-c2ccccn2)CC1,346 nM
15,CCNc1nc2cc(OC)c(Cl)cc2nc1-c1ccccc1-c1ccccc1,2000 nM
16,CCNc1nc2cc(Cl)c(C#CCOCCO)cc2nc1NCC,103 nM
17,CN1CCN(CCNc2nc3cc(Cl)c(C#CCCO)cc3nc2NCCN2CCN(C)CC2)CC1,36 nM
18,CCNc1nc2cc(OC)c(OC)cc2nc1-c1ccncc1,6660 nM
19,CCNc1nc2cc(OC)c(Cl)cc2nc1-c1ccc(C(C)=O)s1,1100 nM
20,CCCCC#Cc1cc2nc(NCC)c(NCC)nc2cc1Cl,884 nM
21,CCNc1nc2cc(Cl)c(C#CCCO)cc2nc1NCC,5 nM
